Source: paper PMC8000760, “Potential Effect of Pseudevernia furfuracea (L.) Zopf Extract and Metabolite Physodic Acid on Tumour Microenvironment Modulation in MCF-10A Cells” (Biomolecules, 2021)

How the values were obtained:
MCF-10A cells = test: Flow cytometry cell cycle phase distribution; type: cell-based, human; conditions: treatment alone (IC10 of PSE/Phy, or TGF-β 30 ng/mL)
Procedure: The MCF-10A and BJ-5ta cells were seeded and cultivated for 24 h in a complete medium. One day after seeding, 30 ng/mL of TGF-β was added and cultivated for 7 days (d). TGF-β was added to induce epithelial–mesenchymal transition in tested cell lines. Lichen extract P. furfuracea (L.) Zopf and its metabolite physodic acid were added at time 0 h and then incubated for 24, 48 and 72 h for various analyses, as described in Figure 1.
The MCF-10A cells (1 × 10^4/well) were seeded in Petri dishes and stimulated with […] TGF-β for 7 days. […] After detaching, using Trypsin/EDTA, cells were harvested and pelleted by centrifugation at 1200 rpm for 5 min. Pellet was re-suspended in PBS and divided for a particular analysis. Cells were stained prior to analyses with E-Cadherin Mouse mAb (Alexa Fluor 488 conjugate) or N-cadherin Rabbit mAb (Alexa Fluor 647 conjugate) (Cell Signalling) for 15 min at RT in the dark. For the cell cycle analyses, cells were re-suspended in staining solution (final concentration 0.1% Triton X-100, 0.5 mg/mL ribonuclease A and 0.025 mg/mL propidium iodide (PI)), and incubated in the dark at RT for 30 min. All samples were analysed using a FACS Calibur flow cytometer (Becton Dickinson, San Jose, CA, USA). The IgG isotype control checking was performed for every used antibody.

[1] = tested on: N-cadherin, Snail, Twist, E-cadherin; design: method as in PMID 26371759; conditions: cited from earlier work
HUVEC = tested on: HUVEC; design: method as in PMID 22669534; conditions: cited from earlier work
EMT process = conditions: through decreasing the mRNA level of E-cadherin; cited from earlier work
angiogenesis in vivo = tested on: angiogenesis in vivo; design: method as in PMID 22669534; conditions: chorioallantoic membrane assay and corneal angiogenesis assay; cited from earlier work
[2] = tested on: endothelial tube formation; conditions: cited from earlier work

Compound: TGF-β
- G1 cell cycle phase distribution (MCF-10A cells; 24 h): 74.55 ± 1.59
- G2/M cell cycle phase distribution (MCF-10A cells; 24 h): 13.25 ± 2.49
- S cell cycle phase distribution (MCF-10A cells; 24 h): 11.15 ± 0.69
- Sub G0 cell cycle phase distribution (MCF-10A cells; 24 h): 1.07 ± 0.22
- G1 cell cycle phase distribution (MCF-10A cells; 48 h): 83.05 ± 2.74
- G2/M cell cycle phase distribution (MCF-10A cells; 48 h): 8.63 ± 1.69
- S cell cycle phase distribution (MCF-10A cells; 48 h): 7.39 ± 0.88
- Sub G0 cell cycle phase distribution (MCF-10A cells; 48 h): 0.94 ± 0.16
- G1 cell cycle phase distribution (MCF-10A cells; 72 h): 81.35 ± 0.37
- G2/M cell cycle phase distribution (MCF-10A cells; 72 h): 10.85 ± 0.45
- S cell cycle phase distribution (MCF-10A cells; 72 h): 6.61 ± 0.74
- Sub G0 cell cycle phase distribution (MCF-10A cells; 72 h): 1.22 ± 0.07

Compound: COC(=O)c1c(C)c2c(c(C)c1O)OC(=O)c1c(C)c(Cl)c(O)c(C=O)c1O2 [physciosporin]
- changes in E-cadherin levels [1]: not observed
- level of EMT-associated proteins N-cadherin, Snail and Twist [1]: decrease

Compound: CC(=O)c1c(O)c(C)c(O)c2c1OC1=CC(=O)C(C(C)=O)C(=O)C12C (stereo not drawn) [(+)- usnic acid]
- VEGF-induced HUVEC migration and tube formation (HUVEC): inhibits

Compound: CC(=O)c1c(O)c(C)c(O)c2c1OC1=CC(=O)C(C(C)=O)C(=O)C12C (centres unmarked) [usnic acid]
- effect on the EMT process (EMT process): inhibitory effect
- angiogenesis in vivo (angiogenesis in vivo): inhibits
- anti-angiogenic activity by inhibiting endothelial tube formation [2]: strong anti-angiogenic activity

Compound: CCCCCC(=O)Cc1cc(O)cc(O)c1C(=O)Oc1cc(O)c(C(=O)O)c(CCCCC)c1 [olivetoric acid]
- endothelial tube formation [2]: inhibiting

Compound: COC(=O)/C(=C1/OC(=O)C(c2ccccc2)=C1O)c1ccccc1 [vulpinic acid]
- anti-angiogenic activity by inhibiting endothelial tube formation [2]: strong anti-angiogenic activity
